Assay: Outcome variables of patients on each psychotropic drug broken down by demographic factors (Covariates tables)
Assay type: in vivo, human
Excerpt: Various SNPs associated with, for example, the observation of various parameters of metabolic syndromes in patients on psychotropic drugs were screened. The endpoints analyzed were the blood levels of LDL, HDL, and glucose; blood pressure; body mass index; waist circumference; and metabolic syndromes index. The physiogenomic model was developed using the following procedure: 1) Establish a covariate model using only the demographic and clinical variables, 2) Screen for associated genetic markers by testing each SNP against the unexplained residual of the covariate model, and 3) Establish a revised model incorporating the significant associations from the SNP screen.

SMILES: OCCOCCN1CCN(C2=Nc3ccccc3Sc3ccccc32)CC1 [Quetiapine, quetiapine]
- LDL (LDL cholesterol level) (Age 20-30): 91.35
- LDL (LDL cholesterol level) (Age 30-40): 102.92
- LDL (LDL cholesterol level) (Age 40-50): 94.39
- LDL (LDL cholesterol level) (Age 50-60): 97.33
- LDL (LDL cholesterol level) (Age 60-70): 88.00
- LDL (LDL cholesterol level) (Age <20): 87.40
- LDL (LDL cholesterol level) (All patients on the drug): 96.71
- LDL (LDL cholesterol level) (Gender female): 92.89
- LDL (LDL cholesterol level) (Gender male): 99.19
- LDL (LDL cholesterol level) (Heritage AA): 94.38
- LDL (LDL cholesterol level) (Heritage Cauc.): 96.93
- BM (human, in vivo): 87.05
- BMI (human, in vivo): 29.44
- Glucose (human, in vivo): 92.08
- HDL (human, in vivo): 49.79
- Log (TG) (human, in vivo): 5.263
- MSI (human, in vivo): 0.2625
- TC (human, in vivo): 192.33
- dBP (human, in vivo): 75.04
- sBP (human, in vivo): 120.07
- LDL (patients on the named drug): 96.71

SMILES: Cc1nc2n(c(=O)c1CCN1CCC(c3noc4cc(F)ccc34)CC1)CCCC2 [Risperidone, risperidone]
- BM (Age 20-30): 77.82
- BMI (Age 20-30): 25.55
- Glucose (Age 20-30): 85.42
- HDL (Age 20-30): 43.50
- LDL (Age 20-30): 93.20
- TC (Age 20-30): 166.80
- Waist (Age 20-30): 92.78
- dBP (Age 20-30): 75.20
- log (TG) (Age 20-30): 4.801
- sBP (Age 20-30): 116.80
- BM (Age 30-40): 77.98
- BMI (Age 30-40): 25.60
- Glucose (Age 30-40): 93.38
- HDL (Age 30-40): 52.19
- LDL (Age 30-40): 92.69
- TC (Age 30-40): 185.54
- Waist (Age 30-40): 92.34
- dBP (Age 30-40): 76.77
- log (TG) (Age 30-40): 5.129
- sBP (Age 30-40): 118.04
- BM (Age 40-50): 77.81
- BMI (Age 40-50): 25.80
- Glucose (Age 40-50): 95.03
- HDL (Age 40-50): 52.00
- LDL (Age 40-50): 100.78
- TC (Age 40-50): 181.71
- Waist (Age 40-50): 97.23
- dBP (Age 40-50): 75.10
- log (TG) (Age 40-50): 4.888
- sBP (Age 40-50): 115.73
- BM (Age 50-60): 76.52
- BMI (Age 50-60): 29.45
- Glucose (Age 50-60): 109.00
- HDL (Age 50-60): 59.50
- LDL (Age 50-60): 85.80
- TC (Age 50-60): 185.70
- Waist (Age 50-60): 100.50
- dBP (Age 50-60): 74.20
- log (TG) (Age 50-60): 5.182
- sBP (Age 50-60): 123.80
- BM (Age 60-70): 87.60
- BMI (Age 60-70): 26.40
- Glucose (Age 60-70): 103.00
- HDL (Age 60-70): 54.00
- LDL (Age 60-70): 111.00
- TC (Age 60-70): 191.00
- Waist (Age 60-70): 103.00
- dBP (Age 60-70): 80.00
- log (TG) (Age 60-70): 4.875
- sBP (Age 60-70): 118.00
- BM (Age <20): 97.73
- BMI (Age <20): 28.93
- Glucose (Age <20): 91.67
- HDL (Age <20): 60.00
- LDL (Age <20): 113.00
- TC (Age <20): 197.33
- Waist (Age <20): 110.33
- dBP (Age <20): 71.33
- log (TG) (Age <20): 4.778
- sBP (Age <20): 123.33
- BM (All): 78.42
- BMI (All): 26.16
- Glucose (All): 94.14
- HDL (All): 51.37
- LDL (All): 96.18
- TC (All): 180.69
- Waist (All): 95.90
- dBP (All): 75.40
- log (TG) (All): 4.958
- sBP (All): 117.58
- BM (Gender female): 73.38
- BMI (Gender female): 27.05
- Glucose (Gender female): 91.57
- HDL (Gender female): 55.74
- LDL (Gender female): 94.32
- TC (Gender female): 179.74
- Waist (Gender female): 95.39
- dBP (Gender female): 74.74
- log (TG) (Gender female): 4.861
- sBP (Gender female): 116.84
- BM (Gender male): 81.45
- BMI (Gender male): 25.62
- Glucose (Gender male): 95.68
- HDL (Gender male): 48.73
- LDL (Gender male): 97.30
- TC (Gender male): 181.27
- Waist (Gender male): 96.20
- dBP (Gender male): 75.79
- log (TG) (Gender male): 5.017
- sBP (Gender male): 118.03
- BM (Heritage AA): 80.46
- BMI (Heritage AA): 27.14
- Glucose (Heritage AA): 115.56
- HDL (Heritage AA): 58.50
- LDL (Heritage AA): 95.50
- TC (Heritage AA): 173.80
- Waist (Heritage AA): 92.90
- dBP (Heritage AA): 78.00
- log (TG) (Heritage AA): 4.478
- sBP (Heritage AA): 117.80
- BM (Heritage Cauc.): 78.19
- BMI (Heritage Cauc.): 26.05
- Glucose (Heritage Cauc.): 92.00
- HDL (Heritage Cauc.): 50.58
- LDL (Heritage Cauc.): 96.25
- TC (Heritage Cauc.): 181.45
- Waist (Heritage Cauc.): 96.23
- dBP (Heritage Cauc.): 75.11
- log (TG) (Heritage Cauc.): 5.011
- sBP (Heritage Cauc.): 117.56
- BM (patients on the named drug): 78.42
- BMI (patients on the named drug): 26.16
- Glucose (patients on the named drug): 94.14
- HDL (patients on the named drug): 51.37
- LDL (patients on the named drug): 96.18
- Log (TG) (patients on the named drug): 4.958
- TC (patients on the named drug): 180.69
- Waist (patients on the named drug): 95.90
- dBP (patients on the named drug): 75.40
- sBP (patients on the named drug): 117.58
